Assays:
Assay in all cases: relative viability (nuclei count vs DMSO), 5 days (fraction); higher = more cells survive
[1] = compound: CC1=C(C(=O)N2C=CSC2=N1)CCN3CCC(=C(C4=CC=CC=C4)C5=CC=C(C=C5)F)CC3 + CC(=O)Nc1cccc(-n2c(=O)n(C3CC3)c(=O)c3c(Nc4ccc(I)cc4F)n(C)c(=O)c(C)c32)c1 [Trametinib] (partner 0.02 µM)
Method in brief: (§1)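 Dosing by pin tool came one day after lung cancer cell lines were seeded in 1536-well plates, using either one drug or a fixed anchor-drug dose plus five library-drug doses (not always all listed) in √10 steps. After 5 days, nuclei were counted on 4× images. Relative viability is treated-well nuclei count divided by vehicle-well nuclei count, and values are medians of duplicate plates.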

[2] = compound: CC1=C(C(=O)N2C=CSC2=N1)CCN3CCC(=C(C4=CC=CC=C4)C5=CC=C(C=C5)F)CC3 + CC1(C)CCC(c2ccc(Cl)cc2)=C(CN2CCN(c3ccc(C(=O)NS(=O)(=O)c4ccc(N[C@H](CCN5CCOCC5)CSc5ccccc5)c(S(=O)(=O)C(F)(F)F)c4)cc3)CC2)C1 [Navitoclax] (partner 0.5 µM)
Method in brief: as §1

[3] = compound: CC1=C(C(=O)N2C=CSC2=N1)CCN3CCC(=C(C4=CC=CC=C4)C5=CC=C(C=C5)F)CC3 + N=C(N)NC(=N)NCCc1ccccc1 [Phenformin] (partner 250 µM)
Method in brief: as §1

[4] = compound: CC1=C(C(=O)N2C=CSC2=N1)CCN3CCC(=C(C4=CC=CC=C4)C5=CC=C(C=C5)F)CC3 + Nc1nc2[nH]cc(CCc3ccc(C(=O)N[C@@H](CCC(=O)O)C(=O)O)cc3)c2c(=O)[nH]1 [Pemetrexed] (partner 0.2 µM)
Method in brief: as §1

## NCI-H838
[1]; first compound 0.08 µM
  relative viability: 0.391
[1]; first compound 0.253 µM
  relative viability: 0.558
[1]; first compound 0.8 µM
  relative viability: 0.565
[1]; first compound 2.53 µM
  relative viability: 0.617
[1]; first compound 8 µM
  relative viability: 0.24
[2]; first compound 0.08 µM
  relative viability: 0.986
[2]; first compound 0.253 µM
  relative viability: 1.08
[2]; first compound 0.8 µM
  relative viability: 1.15
[2]; first compound 2.53 µM
  relative viability: 1.62
[2]; first compound 8 µM
  relative viability: 0.494
[3]; first compound 0.08 µM
  relative viability: 0.629
[3]; first compound 0.253 µM
  relative viability: 0.533
[3]; first compound 0.8 µM
  relative viability: 0.569
[3]; first compound 2.53 µM
  relative viability: 0.576
[3]; first compound 8 µM
  relative viability: 0.464
[4]; first compound 0.08 µM
  relative viability: 0.254
[4]; first compound 0.253 µM
  relative viability: 0.252
[4]; first compound 0.8 µM
  relative viability: 0.259
[4]; first compound 2.53 µM
  relative viability: 0.246
[4]; first compound 8 µM
  relative viability: 0.223

## NCI-H1793
[1]; first compound 0.08 µM
  relative viability: 0.433
[1]; first compound 0.253 µM
  relative viability: 0.407
[1]; first compound 0.8 µM
  relative viability: 0.443
[1]; first compound 2.53 µM
  relative viability: 0.47
[1]; first compound 8 µM
  relative viability: 0.426
[2]; first compound 0.08 µM
  relative viability: 0.376
[2]; first compound 0.253 µM
  relative viability: 0.512
[2]; first compound 0.8 µM
  relative viability: 0.395
[2]; first compound 2.53 µM
  relative viability: 0.507
[2]; first compound 8 µM
  relative viability: 0.374
[3]; first compound 0.08 µM
  relative viability: 0.301
[3]; first compound 0.253 µM
  relative viability: 0.379
[3]; first compound 0.8 µM
  relative viability: 0.404
[3]; first compound 2.53 µM
  relative viability: 0.402
[3]; first compound 8 µM
  relative viability: 0.241
[4]; first compound 0.08 µM
  relative viability: 0.72
[4]; first compound 0.253 µM
  relative viability: 0.715
[4]; first compound 0.8 µM
  relative viability: 0.796
[4]; first compound 2.53 µM
  relative viability: 1.12
[4]; first compound 8 µM
  relative viability: 0.794

## NCI-H520
[1]; first compound 0.08 µM
  relative viability: 0.712
[1]; first compound 0.253 µM
  relative viability: 0.625
[1]; first compound 0.8 µM
  relative viability: 0.631
[1]; first compound 2.53 µM
  relative viability: 0.778
[1]; first compound 8 µM
  relative viability: 0.393
[2]; first compound 0.08 µM
  relative viability: 1.04
[2]; first compound 0.253 µM
  relative viability: 0.939
[2]; first compound 0.8 µM
  relative viability: 1.21
[2]; first compound 2.53 µM
  relative viability: 1.35
[2]; first compound 8 µM
  relative viability: 0.701
[3]; first compound 0.08 µM
  relative viability: 0.784
[3]; first compound 0.253 µM
  relative viability: 0.643
[3]; first compound 0.8 µM
  relative viability: 0.836
[3]; first compound 2.53 µM
  relative viability: 0.539
[3]; first compound 8 µM
  relative viability: 0.468
[4]; first compound 0.08 µM
  relative viability: 0.726
[4]; first compound 0.253 µM
  relative viability: 0.566
[4]; first compound 0.8 µM
  relative viability: 0.691
[4]; first compound 2.53 µM
  relative viability: 0.778
[4]; first compound 8 µM
  relative viability: 0.477

## HCC-44
[1]; first compound 0.08 µM
  relative viability: 1.13
[1]; first compound 0.253 µM
  relative viability: 1.12
[1]; first compound 0.8 µM
  relative viability: 1.13
[1]; first compound 2.53 µM
  relative viability: 1.01
[1]; first compound 8 µM
  relative viability: 1.04
[2]; first compound 0.08 µM
  relative viability: 0.989
[2]; first compound 0.253 µM
  relative viability: 1.28
[2]; first compound 0.8 µM
  relative viability: 1.01
[2]; first compound 2.53 µM
  relative viability: 1.13
[2]; first compound 8 µM
  relative viability: 0.477
[3]; first compound 0.08 µM
  relative viability: 0.172
[3]; first compound 0.253 µM
  relative viability: 0.15
[3]; first compound 0.8 µM
  relative viability: 0.148
[3]; first compound 2.53 µM
  relative viability: 0.217
[3]; first compound 8 µM
  relative viability: 0.202
[4]; first compound 0.08 µM
  relative viability: 0.729
[4]; first compound 0.253 µM
  relative viability: 0.664
[4]; first compound 0.8 µM
  relative viability: 0.612
[4]; first compound 2.53 µM
  relative viability: 0.644
[4]; first compound 8 µM
  relative viability: 0.554

## NCI-H2023
[1]; first compound 0.08 µM
  relative viability: 0.592
[1]; first compound 0.253 µM
  relative viability: 0.478
[1]; first compound 0.8 µM
  relative viability: 0.588
[1]; first compound 2.53 µM
  relative viability: 0.617
[1]; first compound 8 µM
  relative viability: 0.452
[2]; first compound 0.08 µM
  relative viability: 0.99
[2]; first compound 0.253 µM
  relative viability: 0.894
[2]; first compound 0.8 µM
  relative viability: 0.997
[2]; first compound 2.53 µM
  relative viability: 1.08
[2]; first compound 8 µM
  relative viability: 1.09
[3]; first compound 0.08 µM
  relative viability: 0.441
[3]; first compound 0.253 µM
  relative viability: 0.312
[3]; first compound 0.8 µM
  relative viability: 0.426
[3]; first compound 2.53 µM
  relative viability: 0.389
[3]; first compound 8 µM
  relative viability: 0.251
[4]; first compound 0.08 µM
  relative viability: 0.288
[4]; first compound 0.253 µM
  relative viability: 0.199
[4]; first compound 0.8 µM
  relative viability: 0.239
[4]; first compound 2.53 µM
  relative viability: 0.333
[4]; first compound 8 µM
  relative viability: 0.246

## NCI-H1975
[1]; first compound 0.08 µM
  relative viability: 0.349
[1]; first compound 0.253 µM
  relative viability: 0.389
[1]; first compound 0.8 µM
  relative viability: 0.389
[1]; first compound 2.53 µM
  relative viability: 0.35
[1]; first compound 8 µM
  relative viability: 0.311
[2]; first compound 0.08 µM
  relative viability: 1.08
[2]; first compound 0.253 µM
  relative viability: 1.02
[2]; first compound 0.8 µM
  relative viability: 1.17
[2]; first compound 2.53 µM
  relative viability: 1.26
[2]; first compound 8 µM
  relative viability: 0.573
[3]; first compound 0.08 µM
  relative viability: 0.393
[3]; first compound 0.253 µM
  relative viability: 0.425
[3]; first compound 0.8 µM
  relative viability: 0.397
[3]; first compound 2.53 µM
  relative viability: 0.441
[3]; first compound 8 µM
  relative viability: 0.381
[4]; first compound 0.08 µM
  relative viability: 0.292
[4]; first compound 0.253 µM
  relative viability: 0.265
[4]; first compound 0.8 µM
  relative viability: 0.312
[4]; first compound 2.53 µM
  relative viability: 0.291
[4]; first compound 8 µM
  relative viability: 0.236

## NCI-H2342
[1]; first compound 0.08 µM
  relative viability: 0.667
[1]; first compound 0.253 µM
  relative viability: 0.82
[1]; first compound 0.8 µM
  relative viability: 0.791
[1]; first compound 2.53 µM
  relative viability: 0.886
[1]; first compound 8 µM
  relative viability: 0.769
[3]; first compound 0.08 µM
  relative viability: 0.557
[3]; first compound 0.253 µM
  relative viability: 0.605
[3]; first compound 0.8 µM
  relative viability: 0.52
[3]; first compound 2.53 µM
  relative viability: 0.597
[3]; first compound 8 µM
  relative viability: 0.523
[4]; first compound 0.08 µM
  relative viability: 0.657
[4]; first compound 0.253 µM
  relative viability: 0.821
[4]; first compound 0.8 µM
  relative viability: 0.76
[4]; first compound 2.53 µM
  relative viability: 0.818
[4]; first compound 8 µM
  relative viability: 0.634

## COR-L 105
[1]; first compound 0.08 µM
  relative viability: 0.417
[1]; first compound 0.253 µM
  relative viability: 0.459
[1]; first compound 0.8 µM
  relative viability: 0.405
[1]; first compound 2.53 µM
  relative viability: 0.495
[1]; first compound 8 µM
  relative viability: 0.43
[2]; first compound 0.08 µM
  relative viability: 0.765
[2]; first compound 0.253 µM
  relative viability: 0.708
[2]; first compound 0.8 µM
  relative viability: 0.724
[2]; first compound 2.53 µM
  relative viability: 0.808
[2]; first compound 8 µM
  relative viability: 0.634
[3]; first compound 0.08 µM
  relative viability: 0.484
[3]; first compound 0.253 µM
  relative viability: 0.467
[3]; first compound 0.8 µM
  relative viability: 0.402
[3]; first compound 2.53 µM
  relative viability: 0.499
[3]; first compound 8 µM
  relative viability: 0.387
[4]; first compound 0.08 µM
  relative viability: 1.03
[4]; first compound 0.253 µM
  relative viability: 1.26
[4]; first compound 0.8 µM
  relative viability: 1.27
[4]; first compound 2.53 µM
  relative viability: 1.4
[4]; first compound 8 µM
  relative viability: 0.89

Source: the supplement of paper PMC10307832
